System: KKAY mice
Assay: Plasma anti-arteriosclerosis index-enhancing action in mice (Test Example 2)
Format: in vivo
Conditions: Mus musculus, po, 96 h, 0.005% in powdery diet, four days, percent increase of (HDL cholesterol/total cholesterol)x100, non-treatment group taken as 100%
Method: Test compounds were mixed in a powdery diet (CE-2, Japan Clea) at the concentration of 0.005%, and freely given to KKAY mice (9 to 12 weeks old, 5 mice per group), a model of obese and non-insulin dependent diabetes (type 2 diabetes), for four days. During this period, water was given freely. Blood was sampled from orbital venous plexus and components in plasma separated from blood were determined. Total cholesterol levels were determined by using L type Wako Cholesterol (Wako Pure Chemical Industries, Ltd.). Precipitation reagent for HDL cholesterol (Wako Pure Chemical Industries, Ltd.) was added to a part of the plasma to precipitate non-HDL lipoprotein, and cholesterol (HDL cholesterol) in the resulting supernatant was determined. The plasma anti-arteriosclerosis index [(HDL cholesterol/total cholesterol)×100] was calculated by using these cholesterol levels.
In the Table, “Plasma anti-arteriosclerosis index-enhancing action (%)” represents the percent increase (%) of plasma anti-arteriosclerosis index in the treatment group, when the plasma anti-arteriosclerosis index in the non-treatment group is taken as 100%.

Compound | change in vivo at 0.005 % in diet [%]
CCOc1nn(-c2ccc(C(F)(F)F)cn2)cc1CCCOc1cccc(CC(=O)O)c1 [Example 30, [3-(3-{3-ethoxy-1-[5-(trifluoromethyl)-2-pyridyl]-1H-pyrazol-4-yl}propoxy)phenyl]acetic acid] | 19
CCOc1nn(-c2ccc(C(F)(F)F)cn2)cc1CCCOc1ccccc1CC(=O)O [Example 31, (2-(3-{3-ethoxy-1-[5-(trifluoromethyl)-2-pyridyl]-1H-pyrazol-4-yl}propoxy)phenyl]acetic acid] | 16
O=C(O)CCc1cc(OCCCc2cn(-c3ccc(C(F)(F)F)cn3)nc2C2CCCCC2)nn1-c1ccccc1 [Example 189, 3-[3-(3-{3-cyclohexyl-1-[5-(trifluoromethyl)-2-pyridyl]-1H-pyrazol-4-yl}propoxy)-1-phenyl-1H-pyrazol-5-yl]propionic acid] | 20
CCC(CC)c1nn(-c2ccc(Cl)cn2)cc1CCCOc1c(CC(=O)O)cccc1OC [Example 223, (2-{3-[1-(5-chloro-2-pyridyl)-3-(1-ethylpropyl)-1H-pyrazol-4-yl]propoxy}-3-methoxyphenyl)acetic acid] | 12
COc1cccc(CC(=O)O)c1OCCCc1cn(-c2ccc(C(F)(F)F)nn2)nc1C(C)C [Example 274, [2-(3-{3-isopropyl-1-[6-(trifluoromethyl)pyridazin-3-yl]-1H-pyrazol-4-yl}propoxy)-3-methoxyphenyl]acetic acid] | 11
COc1ccc(CC(=O)O)cc1OCCCc1cn(-c2ccc(C(F)(F)F)cn2)nc1C1CCCCC1 [Example 304, [3-(3-{3-cyclohexyl-1-[5-(trifluoromethyl)-2-pyridinyl]-1H-pyrazol-4-yl}propoxy)-4-methoxyphenyl]acetic acid] | 13
Cc1cccc(CC(=O)O)c1OCCCc1cn(-c2ccc(C(F)(F)F)cn2)nc1C1CCCCC1 [Example 316, [2-(3-{3-cyclohexyl-1-[5-(trifluoromethyl)-2-pyridinyl]-1H-pyrazol-4-yl}propoxy)-3-methylphenyl]acetic acid] | 10
CCC(CC)c1nn(-c2ccc(C(F)(F)F)nn2)cc1CCCOc1c(C)cccc1CC(=O)O [Example 340, [2-(3-{3-(1-ethylpropyl)-1-[6-(trifluoromethyl)pyridazin-3-yl]-1H-pyrazol-4-yl}propoxy)-3-methylphenyl]acetic acid] | 21

Reference: US20060148858A1, “1, 2-Azole derivatives with hypoglycemic and hypolipidemic activity” (priority 2002, published 2006)
